In US20250130221A1, “METHOD OF IDENTIFYING AGENTS FOR THE TREATMENT OF CYSTIC FIBROSIS CAUSED BY THE MUTATION F508DEL” (FACULDADE DE CIÊNCIAS DA UNIVERSIDADE DE LISBOA, priority 2022, published 2025):

Legend:
GRK5 = settings: covalent binding; cited from earlier work
F508del-CFTR [1] = molecular target: T1, F508del-CFTR (Homo sapiens, UniProt P13569, DEL508-508); experiment: Western blot of F508del-CFTR processing (bands B and C) in CFBE cells; assay type: cell-based; settings: for F508del-CFTR band C rescue: CFBE cells stably expressing F508del-CFTR, vs DMSO, n=3; for additivity to CFTR correctors, bands C and B: 1 μM with VX-661 (5 μM), VX-445 (3 μM) or VX-661+VX-445, n=4; for CFTR processing [C/(B+C)]: dose-response 0-1 μM, proportional increase in band B
T1 construct: expressed in transfected cells; host or cells: CFBE41o- cells constitutively (stably) expressing F508del-CFTR

F508del-CFTR [2] = molecular target: T1, F508del-CFTR; experiment: Halide-sensitive YFP fluorescence quenching in CFBE cells expressing F508del-CFTR; assay type: cell-based; settings: for additivity to CFTR correctors, HS-YFP quenching rate (F508del-CFTR functional rescue): 1 μM with VX-661 (5 μM), VX-445 (3 μM) or VX-661+VX-445, n=4
Procedure: CFBE41o- cells constitutively co-expressing the HS-yellow fluorescent protein (HS-YFP) YFP-H148Q/I152L as well as wt- or F508del-CFTR (described in (Sondo et al., 2011)) were a kind gift from Dr Nicoletta Pedemonte (IRCCS Istituto G. Gaslini, Genoa, Italy). These cells were cultured in Minimum Essential Medium (MEM) supplemented with 10% FBS, 2 mM L-glutamine, puromycin 2 μg/ml and G418 […] (Sigma, #A1720) at 37° C. in 5% CO2.
This assay was used to assess whether the enhanced F508del-CFTR traffic recorded when the reporter cell line was transfected with confirmed hit siRNAs also corresponded to enhanced F508del-CFTR ionic transport function. As in the microscopy-based screens, a 72 h siRNA transfection time was selected. The assay followed a previously reported protocol (Sondo et al., 2011). CFBE cells co-expressing HS-YFP and wt- or F508del-CFTR were grown to confluency (37° C., 5% CO2) and split to 50% confluency. On the following day, the experiment was initiated by seeding cells onto siRNA-coated 96 well plates using a peristaltic pump (ThermoFisher Multidrop™ Combi). Each well was seeded with 10,000 cells. […] After the stimulation period, each plate was transferred to a fluorescence plate reader equipped with fast reagent injectors (Tecan Infinite F200 Pro) and excitation (BP 475-495 nm) and emission ([…]) filters suitable for YFP fluorescence. Each assay consisted of a continuous 16 s fluorescence reading with 2 s before and 14 s after injection of 160 μl of a PBS where Cl^− had been replaced by I^− (final I^− concentration in the well: 100 mM). The pH of all PBS-containing solutions was rigorously set at pH 7.4 immediately before use to avoid artifacts in the fluorescence reading. The resulting kinetics was background subtracted and normalized to the pre-injection fluorescence value. To determine the fluorescence quenching rate associated with I^− influx, the final 14 s of the kinetics in each well were fitted with a single decay exponential curve and the derivative at the injection time (i.e. the quenching rate) was extracted from the curve parameters. […]

[3] = test system: CFBE cells expressing F508del-CFTR; experiment: Cellular toxicity in CFBE cells during dose-response WB assay; assay type: cell-based, human; settings: concentrations higher than 1 μM
GRK2 [4] = molecular target: T2, GRK2 (Homo sapiens, UniProt P25098); settings: GRK5 over GRK2; cited from earlier work
T2 sequence (P25098 1-689): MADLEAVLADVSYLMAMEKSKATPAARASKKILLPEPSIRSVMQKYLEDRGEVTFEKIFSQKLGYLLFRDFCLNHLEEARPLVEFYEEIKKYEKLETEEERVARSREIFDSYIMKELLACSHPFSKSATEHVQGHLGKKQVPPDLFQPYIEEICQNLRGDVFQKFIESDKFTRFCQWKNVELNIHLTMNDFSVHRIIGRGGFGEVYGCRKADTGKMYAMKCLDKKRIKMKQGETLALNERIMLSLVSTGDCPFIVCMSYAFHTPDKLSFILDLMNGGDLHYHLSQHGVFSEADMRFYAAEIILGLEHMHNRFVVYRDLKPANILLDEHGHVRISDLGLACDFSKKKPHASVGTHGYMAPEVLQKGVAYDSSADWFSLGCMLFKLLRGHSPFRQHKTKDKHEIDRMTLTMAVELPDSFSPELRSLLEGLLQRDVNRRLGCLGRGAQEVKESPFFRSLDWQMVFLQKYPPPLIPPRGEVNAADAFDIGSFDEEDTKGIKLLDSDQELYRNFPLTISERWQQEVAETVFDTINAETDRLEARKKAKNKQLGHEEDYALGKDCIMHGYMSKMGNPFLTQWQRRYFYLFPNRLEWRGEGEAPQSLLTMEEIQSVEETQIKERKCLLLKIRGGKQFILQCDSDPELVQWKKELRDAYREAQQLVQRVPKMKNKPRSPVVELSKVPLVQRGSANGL

GRK2 [5] = settings: cited from earlier work
GRK1 = molecular target: T3, GRK1 (Bos taurus, UniProt P28327); settings: cited from earlier work
T3 sequence (P28327 1-561): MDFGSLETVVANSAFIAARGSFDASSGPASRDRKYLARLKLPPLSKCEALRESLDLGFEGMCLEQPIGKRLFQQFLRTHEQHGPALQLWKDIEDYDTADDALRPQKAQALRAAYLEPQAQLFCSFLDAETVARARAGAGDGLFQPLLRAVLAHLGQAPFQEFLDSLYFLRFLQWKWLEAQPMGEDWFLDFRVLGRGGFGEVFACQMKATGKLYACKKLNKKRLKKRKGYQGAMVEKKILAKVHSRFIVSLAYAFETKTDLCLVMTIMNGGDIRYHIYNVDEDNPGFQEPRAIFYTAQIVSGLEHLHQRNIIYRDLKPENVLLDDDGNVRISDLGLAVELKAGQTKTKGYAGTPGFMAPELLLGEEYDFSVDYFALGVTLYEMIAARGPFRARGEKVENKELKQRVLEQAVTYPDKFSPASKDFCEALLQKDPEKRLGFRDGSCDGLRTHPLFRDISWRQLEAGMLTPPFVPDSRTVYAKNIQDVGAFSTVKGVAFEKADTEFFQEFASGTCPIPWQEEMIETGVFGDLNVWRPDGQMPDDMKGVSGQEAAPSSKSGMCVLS

PKA = settings: statement in words; cited from earlier work
[6] = listed as (R,Z)-3-((4-(2-Bromoacetamido)-3,5-dimethyl-1H-pyrrol-2-yl)-methylene)-2-oxo-N-

T1 sequence (P13569 with tags, fused parts or gaps DEL508-508): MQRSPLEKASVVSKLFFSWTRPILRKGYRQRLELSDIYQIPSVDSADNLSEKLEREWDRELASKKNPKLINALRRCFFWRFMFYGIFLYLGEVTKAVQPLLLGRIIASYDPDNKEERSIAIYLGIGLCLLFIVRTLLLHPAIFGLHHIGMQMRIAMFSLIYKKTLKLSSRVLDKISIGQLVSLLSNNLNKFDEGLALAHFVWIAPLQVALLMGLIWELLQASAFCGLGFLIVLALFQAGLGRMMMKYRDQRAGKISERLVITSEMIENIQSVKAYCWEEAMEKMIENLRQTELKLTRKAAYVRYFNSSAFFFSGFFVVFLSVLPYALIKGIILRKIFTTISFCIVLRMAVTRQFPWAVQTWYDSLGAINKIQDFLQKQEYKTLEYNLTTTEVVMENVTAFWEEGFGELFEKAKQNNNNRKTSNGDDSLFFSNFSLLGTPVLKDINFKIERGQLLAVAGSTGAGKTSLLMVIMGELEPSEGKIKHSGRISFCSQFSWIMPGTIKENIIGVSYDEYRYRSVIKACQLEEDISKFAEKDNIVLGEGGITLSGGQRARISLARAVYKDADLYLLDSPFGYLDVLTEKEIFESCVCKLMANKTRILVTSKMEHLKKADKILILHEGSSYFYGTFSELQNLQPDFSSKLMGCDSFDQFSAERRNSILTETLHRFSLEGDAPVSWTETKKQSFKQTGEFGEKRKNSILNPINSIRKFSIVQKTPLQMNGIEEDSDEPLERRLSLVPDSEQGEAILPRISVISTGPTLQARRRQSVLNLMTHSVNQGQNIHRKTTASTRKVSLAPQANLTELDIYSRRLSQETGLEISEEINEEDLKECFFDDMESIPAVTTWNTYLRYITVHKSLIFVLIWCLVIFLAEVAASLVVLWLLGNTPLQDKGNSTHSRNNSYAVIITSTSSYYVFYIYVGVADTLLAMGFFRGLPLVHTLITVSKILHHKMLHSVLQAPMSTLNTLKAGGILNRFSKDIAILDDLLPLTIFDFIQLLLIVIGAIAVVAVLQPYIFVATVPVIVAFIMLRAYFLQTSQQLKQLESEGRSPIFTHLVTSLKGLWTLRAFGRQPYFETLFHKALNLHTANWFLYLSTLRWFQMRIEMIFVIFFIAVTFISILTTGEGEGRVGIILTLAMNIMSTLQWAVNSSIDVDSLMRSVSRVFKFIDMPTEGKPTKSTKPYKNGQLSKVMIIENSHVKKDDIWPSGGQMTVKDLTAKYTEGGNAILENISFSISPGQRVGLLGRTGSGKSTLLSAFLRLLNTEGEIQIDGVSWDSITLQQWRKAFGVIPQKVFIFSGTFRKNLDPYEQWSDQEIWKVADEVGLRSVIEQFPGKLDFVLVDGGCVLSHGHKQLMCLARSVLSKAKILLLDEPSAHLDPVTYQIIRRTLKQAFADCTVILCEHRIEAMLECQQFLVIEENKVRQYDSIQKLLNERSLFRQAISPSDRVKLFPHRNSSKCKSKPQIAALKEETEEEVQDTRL

For Cc1[nH]c(/C=C2\C(=O)Nc3ccc(C(=O)N[C@H](C)c4ccccc4)cc32)c(C)c1NC(=O)CBr [9 g, (R,Z)-3-((4-(2-Bromoacetamido)-3,5-dimethyl-1H-pyrrol-2-yl)-methylene)-2-oxo-N-(1-phenylethyl)indoline-5-carboxamide], the IC50 (GRK5) is listed as 8.6 nM, the “F508del-CFTR band C rescue” value (F508del-CFTR [1]; 0.3 μM) is listed as “Statistically significant band C rescue” and the “F508del-CFTR band C rescue” value (F508del-CFTR [1]; 0.3 μM, listed as (R,Z)-3-((4-(2-Bromoacetamido)-3,5-dimethyl-1H-pyrrol-2-yl)-methylene)-2-oxo-N-) is listed as “statistically significant band C rescue”. The “additivity to CFTR correctors, bands C and B” value (F508del-CFTR [1]) was “additive to all corrector treatments regarding bands C and B”, the “additivity to CFTR correctors, bands C and B” value (F508del-CFTR [1]; [6]) was “additivity” and the “F508del-CFTR band C rescue” value (F508del-CFTR [1]; 1.0 μM) was “Statistically significant band C rescue”. For the same compound, the “F508del-CFTR band C rescue” value (F508del-CFTR [1]; 1.0 μM, listed as (R,Z)-3-((4-(2-Bromoacetamido)-3,5-dimethyl-1H-pyrrol-2-yl)-methylene)-2-oxo-N-) was “statistically significant band C rescue”, the “band C rescue relative to VX-661” value (F508del-CFTR [1]; at 0.3 and 1.0 μM) was 50 % of VX-661 and the “CFTR processing [C/(B+C)]” value (F508del-CFTR [1]) was “not significantly changed”. For the same compound, the “CFTR processing [C/(B+C)]” value (F508del-CFTR [1]; [6]) was “without improved CFTR processing”, the F508del-CFTR processing rescue (F508del-CFTR [1]; low micromolar concentrations) was “significant F508del-CFTR processing and function rescue” and the “additivity of rescue to correctors (summary statement)” value (F508del-CFTR [1]; low micromolar concentrations, VX-809, VX-445 and VX-661) was “additive to VX-809, VX-445 and VX-661”. The “additivity to CFTR correctors, HS-YFP quenching rate (F508del-CFTR functional rescue)” value (F508del-CFTR [2]) was “additive to all corrector treatments regarding F508del-CFTR functional rescue”, the “additivity to CFTR correctors, HS-YFP quenching rate (F508del-CFTR functional rescue)” value (F508del-CFTR [2]; [6]) was “additivity in all conditions” and the F508del-CFTR function rescue (F508del-CFTR [2]; low micromolar concentrations) was “significant F508del-CFTR processing and function rescue”. The cellular toxicity [3] was “cellular toxicity” and the “selectivity against GRK2” value (GRK2 [4]) was 1400 fold.

For CC1=C(C(=O)Nc2ccc3[nH]ncc3c2)C(c2ccc(F)c(C(=O)NCc3ccccn3)c2)NC(=O)N1 (stereo not drawn) [CCG215022], the IC50 (GRK2 [5]) is listed as 150 ± 70 nM, the IC50 (GRK1) is listed as 3.9 ± 1 µM and the “effect on GRK1” value (GRK1; statement in words) is listed as “does not affect”. The “effect on PKA” value (PKA) was “does not affect”.
